The IC50 is the concentration that inhibits the measured activity by half. A low value points to greater potency in that assay. One may read the MIC as the least concentration at which growth counts as inhibited.

Assay [1] is described as follows: Inhibition of Streptococcus pneumoniae LeuRS using [3H]Leucine as substrate preincubated for 20 mins.
Another assay has as its system Streptococcus pneumoniae. The experiment in a line: Antibacterial activity against Streptococcus pneumoniae assessed as suppression of visible growth incubated for 24 hrs by CLSI-based broth microdilution method. The format is functional. (Dilution methods test growth across graded concentrations, often in twofold steps.)

Each structure is given as a SMILES string. ≈ marks a conversion by molar mass, not a printed value. Calls of active or inactive are those of the source. The calls are words filed in the database; no cut-off is given here.

Compound `CCOC(=O)CC(=O)CSc1ccc(C(O)c2ccc3c(c2)B(O)OC3)cc1` (centres undefined) came in with an IC50 in assay [1] of 7.63 µM.
Compound `C[S+]([O-])c1ccc(C(O)c2ccc3c(c2)B(O)OC3)cc1` (centres undefined) had an IC50 in assay [1] of over 100 µM.
In the case of `CSc1ccccc1C(O)c1ccc2c(c1)B(O)OC2` (centres undefined), half-maximal inhibition in assay [1] (IC50) required 57.1 µM.
Compound `O=Cc1ccc(C(O)c2ccc3c(c2)B(O)OC3)cc1` (centres undefined) displayed an IC50 in assay [1] of 12.8 µM.
The same measure, in the same setting: then `N#Cc1ccc(C(O)c2ccc3c(c2)B(O)OC3)cc1` (centres undefined), with 8.14 µM.
In assay [1], `OB1OCc2ccc(C(O)c3ccc(-c4ccccc4)cc3)cc21` (centres undefined) gave an IC50 of 5.48 µM. In the assay on Streptococcus pneumoniae, the MIC came out at 4 µg/mL (≈ 12.7 µM).
The corresponding values for `CSc1ccc(C(O)c2ccc3c(c2)B(O)OC3)cc1` (centres undefined) are 3.95 µM and 32 µg/mL (≈ 112 µM).
`OB1OCc2ccc(C(O)c3ccc(C(F)(F)F)cc3)cc21` (centres undefined) gave an IC50 in assay [1] of 5.75 µM. The MIC with Streptococcus pneumoniae came to 32 µg/mL (≈ 104 µM).
`Nc1ccc(CSc2ccc(C(O)c3ccc4c(c3)B(O)OC4)cc2)cc1` (centres undefined): in assay [1], half-maximal inhibition (IC50) was put at 11.7 µM.
In assay [1], `OB1OCc2ccc(C(O)c3cccc(Cl)c3)cc21` (centres undefined) had an IC50 of 23.7 µM.
As for `OB1OCc2ccc(C(O)c3ccc(F)cc3)cc21` (centres undefined), in assay [1], the IC50 was found to be 4.86 µM. Also, the MIC entry in the assay on Streptococcus pneumoniae is “inactive”.
With `OB1OCc2ccc(C(O)c3ccc(SCc4ccncc4)cc3)cc21` (centres undefined), the IC50 in assay [1] is 7.17 µM.
Consider `OB1OCc2ccc(C(O)c3ccccc3)cc21` (centres undefined), for which the IC50 in assay [1] was 2.13 µM. The MIC with Streptococcus pneumoniae was 10 µg/mL (≈ 41.7 µM).
Consider `COCCSc1ccc(C(O)c2ccc3c(c2)B(O)OC3)cc1` (centres undefined), for which, in assay [1], the IC50 was found to be 5.76 µM.
In turn, `COc1cccc(C(O)c2ccc3c(c2)B(O)OC3)c1` (centres undefined) returned an IC50 in assay [1] of 50.8 µM.
The same measure, in the same setting: then `COC(=O)c1ccc(CSc2ccc(C(O)c3ccc4c(c3)B(O)OC4)cc2)cc1` (centres undefined), with 22.7 µM; and `OB1OCc2ccc(C(O)c3ccc(Cl)cc3)cc21` (centres undefined), with 7.44 µM.
As to `COc1ccc(C(O)c2ccc3c(c2)B(O)OC3)cc1` (centres undefined), the IC50 in assay [1] amounted to 23.2 µM.
`C=Cc1ccc(C(O)c2ccc3c(c2)B(O)OC3)cc1` (centres undefined) registered an IC50 in assay [1] of 4.63 µM. In addition, in the assay on Streptococcus pneumoniae, the MIC turned out to be 8 µg/mL (≈ 30.1 µM).
Take `CS(=O)(=O)c1ccc(C(O)c2ccc3c(c2)B(O)OC3)cc1` (centres undefined): in assay [1], it took 32.5 µM to reach half-maximal inhibition (IC50).
In assay [1], `OB1OCc2ccc(C(O)c3ccc(SC(F)(F)F)cc3)cc21` (centres undefined) gave an IC50 of 25.7 µM.
Compound `C[Si](C)(C)CSc1ccc(C(O)c2ccc3c(c2)B(O)OC3)cc1` (centres undefined) registered an IC50 in assay [1] of 13.3 µM.
Take `OB1OCc2ccc(C(O)c3ccc(SCc4ccccc4)cc3)cc21` (centres undefined): in assay [1], 27.5 µM corresponded to half-maximal inhibition (IC50).
In assay [1], `CC(=O)COc1ccc(C(O)c2ccc3c(c2)B(O)OC3)cc1` (centres undefined) yielded an IC50 of 7 µM.
Take `OB1OCc2ccc(C(O)c3ccc(SCC(F)(F)F)cc3)cc21` (centres undefined): the IC50 in assay [1] was found to be 3.63 µM.
Compound `OB1OCc2ccc(C(O)c3ccc(N4CCOCC4)cc3)cc21` (centres undefined) returned an IC50 in assay [1] of 10.3 µM.
In assay [1], `NC(=O)CSc1ccc(C(O)c2ccc3c(c2)B(O)OC3)cc1` (centres undefined) returned an IC50 of 10.2 µM.
For `CC(C)(C)OC(=O)NCCSc1ccc(C(O)c2ccc3c(c2)B(O)OC3)cc1` (centres undefined), in assay [1], the midpoint of inhibition, the IC50, lay at 70.2 µM.
For `COc1cc(C(O)c2ccc3c(c2)B(O)OC3)cc(OC)c1OC` (centres undefined), the IC50 in assay [1] was over 640 µM.
Take `O=[N+]([O-])c1ccc(CSc2ccc(C(O)c3ccc4c(c3)B(O)OC4)cc2)cc1` (centres undefined): inhibition in assay [1] was half-maximal at 7.16 µM (IC50).
`OB1OCc2ccc(C(O)c3cccc(F)c3)cc21` (centres undefined) displayed an IC50 in assay [1] of 56.1 µM.
`OB1OCc2ccc(C(O)c3ccc(S)cc3)cc21` (centres undefined) had an IC50 in assay [1] of 0.368 µM. For the same compound, in the assay on Streptococcus pneumoniae, the MIC came to 8 µg/mL (≈ 29.4 µM).
Compound `O=Cc1cc(C(O)c2ccc3c(c2)B(O)OC3)ccc1F` (centres undefined) displayed an IC50 in assay [1] of 66.8 µM.
In the case of `CSc1cccc(C(O)c2ccc3c(c2)B(O)OC3)c1` (centres undefined), in assay [1], inhibition was half-maximal at 23.9 µM (IC50).
With `N#CCSc1ccc(C(O)c2ccc3c(c2)B(O)OC3)cc1` (centres undefined), in assay [1], it took 3.89 µM to reach half-maximal inhibition (IC50). Besides, in the assay on Streptococcus pneumoniae, the MIC is 8 µg/mL (≈ 25.7 µM).
`CC(=O)c1ccc(C(O)c2ccc3c(c2)B(O)OC3)cc1` (centres undefined) showed an IC50 in assay [1] of 11 µM.
In assay [1], `C=CCSc1ccc(C(O)c2ccc3c(c2)B(O)OC3)cc1` (centres undefined) yielded an IC50 of 8.27 µM.
`OB1OCc2ccc(C(O)c3ccc(SCC4CCCCC4)cc3)cc21` (centres undefined) yielded an IC50 in assay [1] of 8.76 µM.
Compound `COc1ccc(C(O)c2ccc3c(c2)B(O)OC3)cc1OC` (centres undefined) came in with an IC50 in assay [1] of 67.8 µM.
On the same count and under the same terms, under `O=C(O)CSc1ccc(C(O)c2ccc3c(c2)B(O)OC3)cc1` (centres undefined) stands 2.15 µM.
`C#CCSc1ccc(C(O)c2ccc3c(c2)B(O)OC3)cc1` (centres undefined) gave an IC50 in assay [1] of 3.77 µM. For the same compound, the MIC in the assay on Streptococcus pneumoniae was determined as 16 µg/mL (≈ 51.6 µM).
In the case of `CC(=O)CSc1ccc(C(O)c2ccc3c(c2)B(O)OC3)cc1` (centres undefined), in assay [1], the IC50 is 0.95 µM. In addition, the MIC in the assay on Streptococcus pneumoniae amounted to 6 µg/mL (≈ 18.3 µM).
As for `CC1(C)S[C@@H]2[C@H](NC(=O)[C@H](N)c3ccccc3)C(=O)N2[C@H]1C(=O)O` [AMPICILLIN], in the assay on Streptococcus pneumoniae, the MIC was determined as 0.125 µg/mL (≈ 0.358 µM).
In the case of `COC(=O)c1ccc(C(O)c2ccc3c(c2)B(O)OC3)cc1` (centres undefined), it took 18.5 µM to reach half-maximal inhibition in assay [1] (IC50).
